Measurements from patent US6962808B2, “Method and apparatus for measurement of the effect of test compounds on signal transduction at the level of biological receptors” (The University of Louisville Research Foundation, priority 1998, dated 2005).

Target: T1, human estrogen receptor binding to ERE (Homo sapiens, UniProt P03372)
T1 construct: ubiquitin (fusion partner); made in house; host or cells: Saccharomyces cerevisiae strain AF103, YEpE10 plasmid, CUP1 promoter
Assay: Evanescent fiber optic sensor, ERE fiber, binding of Cy5-tagged hER to the estrogen response element
Format: biochemical
Experimental: This solution comprised said calibration standard of component 6a. […] This receptor preparation was used as the calibration solution. Immediately after preparation it was pipetted in 135 μl aliquots into microcentrifuge tubes, snap frozen and stored at −80° C. They were not thawed again until they were used with the fiber sensor.

T1 sequence (P03372 whole entry, the tested form may be a part): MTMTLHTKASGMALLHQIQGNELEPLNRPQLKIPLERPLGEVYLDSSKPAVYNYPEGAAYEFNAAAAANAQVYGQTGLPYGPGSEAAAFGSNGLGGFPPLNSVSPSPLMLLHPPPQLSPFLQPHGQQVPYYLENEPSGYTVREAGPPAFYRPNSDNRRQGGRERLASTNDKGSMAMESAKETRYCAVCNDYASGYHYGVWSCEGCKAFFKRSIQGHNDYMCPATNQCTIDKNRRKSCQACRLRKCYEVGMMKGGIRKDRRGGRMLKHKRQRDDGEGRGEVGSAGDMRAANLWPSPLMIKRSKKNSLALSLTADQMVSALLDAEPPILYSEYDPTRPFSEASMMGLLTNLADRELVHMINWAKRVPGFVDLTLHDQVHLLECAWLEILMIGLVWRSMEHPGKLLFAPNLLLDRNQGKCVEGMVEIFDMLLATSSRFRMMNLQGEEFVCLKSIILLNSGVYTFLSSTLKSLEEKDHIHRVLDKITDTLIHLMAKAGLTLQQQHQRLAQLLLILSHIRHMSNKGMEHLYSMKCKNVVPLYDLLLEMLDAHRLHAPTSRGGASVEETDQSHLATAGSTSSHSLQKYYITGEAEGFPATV

## C[C@H]1CCCC(=O)CCC/C=C/c2cc(O)cc(O)c2C(=O)O1 [zearalenone]
S/C value, control = 3.51
  Response of ERE fiber to hER and 10^−6 M compound (control = 3.51): 5.01
In words, 10^−6 M compound
  effect on binding of hER to the ERE fiber: increase binding to the ERE more than do the weak biological estrogens
